This note sets out measurements from patent US6156762A, “Indolomorphinan derivative and agent for curing and preventing cerebral disorder” (Toray Industries, Inc., priority 1997, dated 2000).

Structures are written as SMILES.

The first test concerns cultured nerve cells. Description: Action of protecting cultured nerve cells from glutamic acid toxicity (LDH leakage). The test is classed as cell-based, Wistar rat. The following applies: rat fetal cerebral cortex cells, 10 mM glutamic acid, 24 hours, read-out: ED50 (the source's name). The text has this: It is known that when the blood flow to the brain is temporarily clogged due to cerebral ischemia, hypoxia, or an trauma, delayed cerebral neuronal death is induced [Document: Brain Research, Vol. 239, 57 (1982)]. A possible cause of such damage of the cerebral nerve cells is excitatory toxicity due to an excitatory neutotransmitter such as glutamic acid or the like, which is excessively released with ischemia [Document: Trends in Neuroscience, vol. 10, 299 (1987)]. […] This is a problem to be solved by the invention. This action was evaluated by using the in vitro evaluation system which will be described below.
A fetus was taken from the abdomen of a Wistar female rat on the 18 to 19th day of pregnancy under aseptic conditions, and the head of the fetus was opened to extract the brain. The brain was placed in an ice-cooled L-15 medium, and the cerebral cortex was separated under a microscope. The cerebral cortexes of about 30 rats were cut into pieces, and then suspended in 10 ml of a 0.25% trypsin solution and 0.2 ml of a 0.01% DNase solution, followed by culture at 37° C. for 30 minutes. Then, 2 ml of serum was added to the solution, and immediately the resultant mixture was centrifuged at 120 rpm for 2 minutes to separate the precipitates. To the precipitates was added 7 ml of a DF medium (a medium obtained by adding 20 nM of transferrin, 5 μg/ml of insulin, 20 nM of progesterone,60 nM of selenite, 50 U/ml of penicillin, and 50 U/ml of streptomycin to a mixture equivalent amounts of Dulbecco modified Eagle medium and F-12 medium), followed by 20 pipetting operations using a 10-ml plastic pipette to obtain a cell suspension. The cell suspension was filtered with nylon mesh (pore diameter 43 μm) to fractionate isolated cells. The thus-obtained isolated cells were diluted with a DF medium to a concentration of 6.0×10^5 cells/ml, and 500 μl of the diluted cells was inoculated in each of the 48 wells of a 48-well culture plate precoated with polylysine, followed by culture at 37° C. for 1 day in the presence of 5% of CO2. On the 2nd day, the medium was changed to a new DF medium, and 10 μl of a solution of 0.5M glutamic acid in distilled water was added to each of the wells (the final glutamic acid concentration was 10 mM), followed by further culture at 37° C. for 24 hours in the presence 5% of CO2. A test compound was dissolved in distilled water, 10% or 100% DMSO or 10% methanol, and 5 μl of the solution was added to each of the wells immediately before glutamic acid was added. As an index of nerve cell damage, the enzyme activity of lactic acid dehydrogenase (LDH) leaking from the damaged cells into the medium was measured. For each of the test compounds, the LDH leakage was measured at each of concentrations to determine a dose-response curve by the modified Cochran-Armitige method. The 50% effective dose (ED50) of each of the test compounds we determined from the curve.
Regarding `O=C(/C=C/c1cccc(C(F)(F)F)c1)NCCCn1c2c(c3ccc4ccccc4c31)C[C@@]1(O)[C@H]3Cc4ccc(O)c5c4[C@@]1(CCN3CC1CC1)[C@H]2O5` [Compound 65, 17-cyclopropylmethyl-3,14β-dihydroxy-6,7-dehydro-4,5α-epoxy-6,7,2',3'-[1'-(3-(3-trifluoromethylcinnamamido)propyl)-6',7'-benzoindolo]morphinan], the EC50 stood at 110 nM.
The same measure, in the same setting: next, `CCCCCCCc1ccc2c3c([nH]c2c1)[C@@H]1Oc2c(O)ccc4c2[C@@]12CCN(CC1CC1)[C@H](C4)[C@]2(O)C3` [Compound 7, 17-cyclopropylmethyl-3,14β-dihydroxy-6,7-dehydro-4,5α-epoxy-6,7,2',3'-(6'-heptylindolo)morphinan]: 200 nM.
`NCCCn1c2c(c3ccccc31)C[C@@]1(O)[C@H]3Cc4ccc(O)c5c4[C@@]1(CCN3CC1CC1)[C@H]2O5` [Compound 24, 17-cyclopropylmethyl-3,14β-dihydroxy-6,7-dehydro-4,5α-epoxy-6,7,2',3'-[1'-(3-aminopropyl)indolo]morphinan]: the EC50 came to 800 nM.
`O=C(/C=C/c1cccc(C(F)(F)F)c1)NCCCn1c2c(c3ccccc31)C[C@@]1(O)[C@H]3Cc4ccc(O)c5c4[C@@]1(CCN3CC1CC1)[C@H]2O5` [Compound 63, 17-cyclopropylmethyl-3,14β-dihydroxy-6,7-dehydro-4,5α-epoxy-6,7,2',3'-[1'-[3-(3-trifluoromethylcinnamido)propyl]indolo]morphinan]: the EC50 came out at 150 nM.
`Oc1ccc2c3c1O[C@H]1c4c(c5ccccc5n4-c4ccccc4)C[C@@]4(O)[C@@H](C2)N(CC2CC2)CC[C@]314` [Compound 4, 17-cyclopropylmethyl-3,14β-dihydroxy-6,7-dehydro-4,5α-epoxy-6,7,2',3'-(1'-phenylindolo)morphinan]: the EC50 worked out at 80 nM.
On the same count and under the same terms, with `Oc1ccc2c3c1O[C@H]1c4c(c5ccccc5n4CCCN=C=S)C[C@@]4(O)[C@@H](C2)N(CC2CC2)CC[C@]314` [Compound 59, 17-cyclopropylmethyl-3,14β-dihydroxy-6,7-dehydro-4,5α-epoxy-6,7,2',3'-[1'-(3-isothiocyanatopropyl)indolo]morphinan] the figure was 110 nM; with `N#Cc1cc2c3c([nH]c2c2ccccc12)[C@@H]1Oc2c(O)ccc4c2[C@@]12CCN(CC1CC1)[C@H](C4)[C@]2(O)C3` [Compound 11, 17-cyclopropylmethyl-3,14β-dihydroxy-6,7-dehydro-4,5α-epoxy-6,7,2',3'-(5'-cyano-6',7'-benzoindolo)morphian], 138 nM; with `Cn1c2c(c3cc4c5c(cccc5c31)CC4)C[C@@]1(O)[C@H]3Cc4ccc(O)c5c4[C@@]1(CCN3CC1CC1)[C@H]2O5` [Compound 84, 17-cyclopropylmethyl-3,14β-dihydroxy-6,7-dehydro-4,5α-epoxy-6,7,2',3'-(1'-methyl-5',6"-ethano-6',7'-benzoindolo)morphinan], 39 nM.
In the case of `Oc1ccc2c3c1O[C@H]1c4c(c5cc6c7c(cccc7c5n4Cc4ccccc4)CC6)C[C@@]4(O)[C@@H](C2)N(CC2CC2)CC[C@]314` [Compound 83, 17-cyclopropylmethyl-3,14β-dihydroxy-6,7-dehydro-4,5α-epoxy-6,7,2',3'-(1'-benzyl-5',6"-ethano-6',7'-benzoindolo)morphinan], the EC50 turned out to be 73 nM.
Same read-out and setting: next, `Oc1ccc2c3c1O[C@H]1c4c(c5ccc6ccccc6c5n4CCCN=C=S)C[C@@]4(O)[C@@H](C2)N(CC2CC2)CC[C@]314` [Compound 60, 17-cyclopropylmethyl-3,14β-dihydroxy-6,7-dehydro-4,5α-epoxy-6,7,2',3'-[1'-(3-isothiocyanatopropyl)-6',7'-benzoindolo)morphinan]: 93 nM; `Cc1ccc(Cn2c3c(c4ccc5ccccc5c42)C[C@@]2(O)[C@H]4Cc5ccc(O)c6c5[C@@]2(CCN4CC2CC2)[C@H]3O6)cc1` [Compound 71]: 19 nM.
On the same count and under the same terms, with `Cc1cc2c3c([nH]c2c2ccccc12)[C@@H]1Oc2c(O)ccc4c2[C@@]12CCN(CC1CC1)[C@H](C4)[C@]2(O)C3` [Compound 13, 17-cyclopropylmethyl-3,14β-dihydroxy-6,7-dehydro-4,5α-epoxy-6,7,2',3'-(5'-methyl-6',7'-benzoindolo)morphinan] the figure was 93 nM; with `Oc1ccc2c3c1O[C@H]1c4c(c5ccccc5n4Cc4ccccc4)C[C@@]4(O)[C@@H](C2)N(CC2CC2)CC[C@]314` [Compound 68, 17-cyclopropylmethyl-3,14β-dihydroxy-6,7-dehydro-4,5α-epoxy-6,7,2',3'-(1'-benzylindolo)morphinan], 91 nM.
On the same count and under the same terms, next, `Oc1ccc2c3c1O[C@H]1c4[nH]c5c(cc(-c6ccccc6)c6ccccc65)c4C[C@@]4(O)[C@@H](C2)N(CC2CC2)CC[C@]314` [Compound 15, 17-cyclopropylmethyl-3,14β-dihydroxy-6,7-dehydro-4,5α-epoxy-6,7,2',3'-(5'-phenyl-6',7'-benzoindolo)morphinan]: 150 nM; `Oc1ccc2c3c1O[C@H]1c4[nH]c5c6c(ccc5c4C[C@@]4(O)[C@@H](C2)N(CC2CC2)CC[C@]314)Cc1ccccc1-6` [Compound 22, 17-cyclopropylmethyl-3,14β-dihydroxy-6,7-dehydro-4,5α-epoxy-6,7,2',3'-(6',7',2",3"-indenoindolo)morphinan]: 50 nM.

Another test deals with middle cerebral artery ischemia model of rat. Description: Infarction inhibiting action in middle cerebral artery ischemia (MCAo-recirculation) model of rat. The test is classed as in vivo. The following applies: ip, 24 h, 3 mg/kg i.p. 10 minutes before occlusion and 1 hour after recirculation, infarction volume one day after, vs control group, read-out: Rate of inhibition of infarction. The text has this: It is also known that, in this way, in the acute stage of cerebral infarction, the lesion proceeds to the peripheral tissue from the core of infarction, and death of the nerve cells is extended with the passage of several days. This possible not only extends and creates grave aftereffects, and causes loss of motor and mental function, but also finally critically influences on the life. As an in vivo experimental model of cerebral infarction which is capable of precisely evaluating the clinical effect of a medicine in conformity with clinical conditions of the disease of a patient of cerebral infarction, the middle cerebral artery occlusion (MCAo)-recirculation model comprising an embolus with a yarn using Wister rates may be used [Document: Japan Journal of Stroke, vol. 8, 1 (1986)]. […] This action was evaluated by applying the MCAo model by the method which will be described below.
In rats of 10 weeks old, after etherization, a median incision of the cervical region was made up to the right carotid artery bifurcation under 1.0% halothane anesthetization with care to preserve the vagus nerves. The common carotid artery and the external carotid artery were separated from the periphery connective tissue with the right carotid artery bifurcation as the center, and each of the arteries was ligated by a 6-0 silk yarn (Eto yarn). Further, a yarn was wound on the internal carotid artery origin in preparation for ligation and fixing after insertion of the embolus. Next, the common carotid artery was incised, and the embolus was inserted from the common carotid artery to the internal carotid artery by about 15 to 16 mm, and ligated and fixed to the internal carotid artery by the silk yarn at the end thereof near the nylon yarn. In this operation, the end of the embolus was inserted into the anterior cerebral artery by about 1 to 2 mm beyond the middle cerebral artery bifurcation, and the inlet of the middle cerebral artery was occluded by the body (resin part) of the embolus for 1 hours. In recirculation, the embolus with a yarn was removed to recirculate the blood flow to the middle cerebral artery. 3 mg/kg of each of test compounds was intraperitoneally administered 10 minutes before occlusion and 1 hour after recirculation of the blood flow. One day after occlusion and recirculation, the whole body was perfused with physiologic saline through the heart, and the brain was extracted. The extracted brain was cooled with ice and water for 5 minutes, and cut at intervals of 2.0 mm to form 7 sections of the cerebral coronal surface. Each of the sections was stained with TTC (Triphenyltetrazolium Chloride), and fixed by a 5% neutral buffer formalin solution. In each of the sections, the infarction area in the right cerebral hemisphere was measured by an image analyzer (Olympus), and the infarction was evaluated by volume (mm^3). The infarction volume was compared with the infarction volume of a control group to calculate the rate of inhibition of infarction.
`Oc1ccc2c3c1O[C@H]1c4[nH]c5c(cc(Cl)c6ccccc65)c4C[C@@]4(O)[C@@H](C2)N(CC2CC2)CC[C@]314` [Compound 10, 17-cyclopropylmethyl-3,14β-dihydroxy-6,7-dehydro-4,5α-epoxy-6,7,2',3'-(5'-chloro-6',7'-benzoindolo)morphinan]: the inhibition in vivo at 3 mg/kg amounted to 15%.
Consider `Oc1ccc2c3c1O[C@H]1c4[nH]c5c(ccc6ccccc65)c4C[C@@]4(O)[C@@H](C2)NCC[C@]314` [Compound 73, 3, 14β-dihydroxy-6,7-dehydro-4,5α-epoxy-6,7,2',3'-(6',7'-benzoindolo)morphinan], for which the inhibition in vivo at 3 mg/kg turned out to be 34%.
Same read-out and setting: with `Oc1ccc2c3c1O[C@H]1c4[nH]c5c(ccc6ccccc65)c4C[C@@]4(O)[C@@H](C2)N(CCc2ccccc2)CC[C@]314` [Compound 75, 17-(2-phenylethyl)-3,14β-dihydroxy-6,7-dehydro-4,5α-epoxy-6,7,2',3'-(6',7'-benzoindolo)morphinan] the figure was 30%.
